Each structure is given as a SMILES string.

In general, melting point refers to the temperature of the solid-liquid transition.

In turn, `Oc1ccc2ccc(-c3ccccc3)cc2c1` had a melting point of 205 °C.
Under `CC1=C(C(=O)NC(C)(C)C)C(c2ccccc2Br)C(C(=O)OC(C)C)=C(COCCn2c(C)nc3cnccc32)N1` (stereo not drawn) stands 160 to 165 °C.
Under `N#CC1CN1C(=O)NC(=O)c1cc2ccccc2o1` (stereo not drawn) stands 190 to 192 °C; under `COc1cc(OC)nc(NC(=O)NS(=O)(=O)c2nc(C)cc3c2C(=O)OC3)n1`, 149 to 153 °C; under `NC(=O)c1ncn(Cc2ccccc2)c1NC(=S)NC(=O)c1ccccc1`, 181 to 182 °C.
As to `CCCCSc1ccc2[nH]c(=O)oc(=O)c2c1`, the melting point was in the range of 196 to 200 °C.
Under `CC(=O)Nc1nc(NC(C)=O)nc(-c2ccc(S(=O)(=O)c3ccccc3)cc2)n1` stands > 260 °C; under `Nc1ccc(OC(F)(F)F)cc1C(=O)O`, 142 to 144 °C.
To `CCOC(=O)c1ccc(-n2ccnc2)cc1` belongs 100 °C.
Under `N#Cc1c(Cl)c2cc(F)ccc2n(Cc2ccc(F)cc2)c1=O` stands 236 °C; under `CCN(C(=O)c1ccc(Cl)c(Cl)c1)c1ccc(C)cc1CCC(=O)O`, 107 to 109 °C; under `Nc1sc(CCC(=O)O)cc1C(=O)c1ccccc1Cl`, 170 to 173 °C.
For the compound `Cc1cc2[nH]c(=O)c3cnc(Cl)cc3n2n1`, the melting point was > 300 °C.
To `N#Cc1nc(Cl)c(-c2c(F)cc(F)cc2F)c(N2CCCO2)n1` belongs 107 to 113 °C; to `COc1nn(-c2cccc(N3CCCC3=O)c2)c(=O)n(Cc2ccc(Cl)cc2)c1=O`, 91 to 93 °C; to `CC(=O)SCCC(=O)N1C(C(=O)O)CC2CCCCC21` (stereo not drawn), 131 to 133 °C.
To `CCOC(=O)c1cc(OC(C)=O)c2cc(N3CCOCC3)ccc2c1` belongs 135 to 137 °C; to `CC(C)CCN1C(=O)C(N)C(=O)N(c2ccccc2F)c2ccccc21` (stereo not drawn), 125 to 160 °C; to `COC(=O)C(=CNc1cc(-c2ccccc2Cl)sc1C(=O)O)SC`, 80 to 85 °C.
`O=C(O)c1cc(Oc2ccc(Br)cc2)cc(C(=O)O)c1`: the melting point fell in the range of 310 to 320 °C.
To `COC1=C(OC)C(=O)C(CCCCCCCCCCCO)=C(C)C1=O` belongs 57 °C; to `O=C1N(Cc2ccc(Cl)s2)c2ccccc2C12COc1ccc(Br)cc12` (stereo not drawn), 140 to 142 °C.
Under `CN(C)C(=O)c1ccc(Cl)c(C#N)c1` stands 193 °C.
In turn, `O=C(c1ccc2c(c1)OCCO2)c1cc2ccccc2o1` came in with a melting point of 68 to 70 °C.
To `CCCCCCOc1nc(-c2ccccc2)sc1-c1ccccc1` belongs 70 to 72 °C; to `CC1=C(C(=O)OCCN(C)Cc2ccccc2)C(c2ccccc2C(F)(F)F)c2c(ccnc2OCC(C)C)N1` (stereo not drawn), 148 to 150 °C; to `O=C(CCCCCNC(=O)C(=O)c1cn2c3c(cccc13)CCC2)NOCc1ccccc1`, 119 to 121 °C.
To `ClCCCCCOc1ccc(C2=C(c3ccccc3)CCCc3cc(OC4CCCCO4)ccc32)cc1` (stereo not drawn) belongs 99 to 101 °C; to `O=C(Nc1ccc2c(c1)CS(=O)(=O)N2)C(=O)N1CCC(Cc2ccc(F)cc2)CC1`, 183 to 184 °C; to `CCOC(=O)C(=O)NS(=O)(=O)Cc1nc(-c2ccc(Cl)c(Cl)c2)cs1`, 180 to 182 °C.
`CC1(C)CC(=O)c2c(NC3CC3)sc(-c3cc[nH]n3)c2C1` came in with a melting point of 232 to 235 °C.
As for `Cc1c2c(c(CCC=O)c(C(C)C)c1OCc1ccccc1)OC(C)(C)C2`, the melting point is 88 to 89 °C.
To `NNC(=O)c1ccccc1CS(N)(=O)=O` belongs 221 to 222 °C; to `COc1ccnc(Cl)c1NS(=O)(=O)c1nc2cc(F)nc(OC)n2n1`, 187 to 188 °C.
To `COC(=O)c1cc(O)ccc1N` belongs 154 to 155 °C; to `CC(=O)c1c(-c2ccc(Cl)cc2)c(-c2ccc(Cl)cc2)nn(CCO)c1=O`, 191 to 193 °C.
Under `Cc1c(CC(=O)O)oc2ccc(F)cc12` stands 129 to 130 °C.
For the compound `CSc1ccc(C[C@H](CO)NC(=O)OCc2ccccc2)cc1`, the melting point was 115 to 117 °C.
In turn, `CN(C)c1ccc(C(=O)c2ccncc2)cc1` came in with a melting point of 122 to 124 °C.
Under `COC(=O)c1nc(-c2ccc(CF)cc2)cc(N)c1Cl` stands 95 to 97 °C.
Under `CC(C)(C)[C@H]1CC[C@H](Nc2ncc(CCc3cccnc3)c3ccccc23)CC1` stands 124 to 125 °C.
`CCOC(=O)c1cc(C#N)c(C)nc1N1CCCCC1` displayed a melting point of 72 to 74 °C.
`CCCCC(OC(C)=O)c1cccc(COc2cc([N+](=O)[O-])cc3cccnc23)c1` (stereo not drawn) yielded a melting point of 72 to 74 °C.
To `CCOC(=O)C(C)(C)Oc1cccc2c1C[C@@H](OC)[C@H](O)C2` (relative stereo) belongs 153 to 155 °C; to `Cc1ccc(OC(=O)Cl)cc1`, 60 to 61.5 °C; to `COc1ccc(-c2nn(Cc3ccccc3)c(=O)cc2-c2ccncc2)cc1`, 154 to 155 °C.
On to `O=C(c1ccccc1CBr)c1ccc(F)cc1CBr`, for which the melting point lay within 98 to 99 °C.
`Oc1ncnc2c(-c3ccc(Cc4ccccc4)cc3)cnn12` had a melting point of 300 to 303 °C.
To `CC(c1noc(C(F)F)n1)N1C(=O)C2(COc3cc4c(cc32)OCO4)c2c(Cl)cccc21` (stereo not drawn) belongs 179 to 182 °C; to `CCCCCCC(C)(C)c1cc(OC)c(C2=C[C@@H]3CC[C@@]2(C)C3(C)C)c(OC)c1`, 35 to 37 °C.
Under `c1ccn(-c2nc(COc3ccc(CCCn4ccnc4)cc3)cs2)c1` stands 93 to 94 °C; under `CS(=O)(=O)c1ccc(-c2cnn(-c3ccc([N+](=O)[O-])s3)c(=O)c2-c2ccc(F)cc2)cc1`, 252 to 253 °C.
Under `COc1cc(OC)nc(Sc2ncccc2C(=O)O)n1` stands 165 to 168 °C.
As for `COC(=O)CNc1cccc(Cl)c1`, the melting point lay within 75 to 76 °C.
Under `O=C1CC[C@@H](C(=O)Nc2ccc(-c3ncc(C(=O)O)c(O)n3)cc2)N1` stands > 300 °C; under `CCOC(=O)c1cn(C)c2nc3cc(N4CC(N(C)C)C4)c(F)cc3cc2c1=O`, 224 °C.
In turn, `CNS(=O)(=O)c1ccc(-c2ccc3oc(C4CCN(C(=O)OC(C)C)CC4)nc3c2)cc1` gave a melting point of 179 to 181 °C.
To `CCOP(=O)(OCC)C1CCNc2ccc(C(F)(F)F)cc21` (stereo not drawn) belongs 94 °C; to `COC(=O)c1ccc2[nH]c(C#N)c(-c3ccccc3)c2c1`, 250 to 253 °C; to `CC(=O)NCc1ccc(CN2CCN(c3nc(C)cc(C)n3)CC2)cc1`, 127 to 128 °C.
To `CC1(C)CCC(C)(C)c2cc(-c3cc(-c4ccc(C(=O)O)cn4)ccc3-c3ccccc3)ccc21` belongs 105 to 107 °C.
To `NC(=O)CN1CCN(c2ccc3c(c2)N2CCN=C2C(c2ccccc2)=[N+]3[O-])CC1` belongs 225 to 227 °C; to `CCCCc1ccc(CCCC(=O)O)cc1`, 56 to 58 °C; to `CCCC(=O)c1c(C)cc(C)cc1O`, 48 to 52 °C.
Regarding `COC(=O)CCC(=NO)C(C)(C)NCCCNC(C)(C)C(Cn1ccnc1[N+](=O)[O-])=NO`, the melting point lay within 137 to 139 °C.
Under `Cc1cc(NC(=O)CCC(=O)O)ccc1-n1c(C)nc2ccccc2c1=O` stands 228 to 230 °C.
Under `CCC1(CC)C(=O)N(C(C)(C)CO)CC(C)(C)N1OC(C)(C)C#N` stands 58 to 66 °C; under `CCCCN1CCC(NS(=O)(=O)c2ccc(Nc3ccnc4cc(Cl)ccc34)cc2)CC1`, 190 to 191 °C.
To `CC(C)Nc1cccnc1N1CCN(C(=O)c2ccc(C(=O)NC(C)(C)CO)cc2)CC1` belongs 113 to 115 °C.
Compound `CCCc1nc2c(N)nc3cc(-c4ccccc4NC(C)=O)ccc3c2s1` registered a melting point of 206 to 209 °C.
As for `CON1CCC2(CC1)C(=O)C(c1c(C)cc(C)cc1C)([N+](=O)[O-])C(=O)N2C` (stereo not drawn), the melting point is 127 to 129 °C.
To `O=C1c2ccccc2C(=O)N1Cc1noc(-c2ncn3c2[C@@H]2CCN2C(=O)c2c(Cl)cccc2-3)n1` belongs 189 to 192 °C; to `CCN(c1ccc(C(=O)O)cc1)c1cc2c3c(c1)CCCC3CCC2`, 284 to 285 °C.
Under `COc1ccc(C2c3ccccc3C(c3ccc4c(c3)OCO4)C2c2nnn[nH]2)cc1` (stereo not drawn) stands 155 to 157 °C; under `CC(C)(CCc1noc(=O)[nH]1)c1ccc(C(=O)Nc2cn3cc(C(F)(F)F)ccc3n2)cc1`, 268 to 270 °C; under `COc1ccc(C(=O)Oc2ccccc2)cc1Nc1ccccc1`, 130 to 131 °C.
Under `COC(=O)c1cc2cc(OC)c(OC)cc2c(-c2ccnc(-n3c(=O)ccc4ccccc43)c2)c1C(=O)OC` stands > 230 °C.
In turn, `CCCSc1nc(Sc2ccc(OC)cc2)c(C(=O)O)n1Cc1cc2c(cc1Cl)OCO2` gave a melting point of 164 °C.
Under `O=C(O)c1cc2c(n(CC3CCCCC3)c1=O)CCCCCC2` stands 162 to 163 °C; under `Nc1nccnc1C(=O)N1CCCC1`, 100 to 105 °C; under `Cc1ccc2c(c1)N(CC(=O)c1ccccc1C)C(=O)C(NC(=O)Nc1ccc(Cl)c(C(=O)O)c1)CN2C(=O)C(C)(C)C` (stereo not drawn), 178 to 180 °C.
Under `Cc1c(C(=O)OCc2ccccc2)sc2ccc3[nH]c4c(c3c12)CNCC4` stands 178 °C; under `Cc1cccc(C(=O)c2nc(-c3ccccn3)no2)c1`, 127 to 128 °C; under `CNC(=O)C(C)Oc1ncn(-c2ccc(Br)cc2)n1` (stereo not drawn), 176 to 178 °C.
Under `Cn1c(C(F)(F)F)cc(=O)n(-c2c(F)cc(Cl)c3ccoc23)c1=O` stands 127 to 128 °C; under `COc1ccc(C2(O)OC(=O)C(c3cc(OC)c4c(c3)OCO4)=C2CC2CCCC2)cc1C` (stereo not drawn), 144 to 145 °C.
On to `O=C(Nc1cccc(-c2ccnc3c(C(=O)c4cccs4)cnn23)c1)c1cnccn1`, for which the melting point was in the range of 222 to 224 °C.
Compound `c1ccc(Sc2ccc(-c3ccccc3)s2)cc1` had a melting point of 72.5 to 74.5 °C.

The record behind these values is a melting point compilation (Tetko et al.; mined from patent text by program, amines drawn as free bases though some values may be those of a salt).
